Test results as given in patent publication EP0051773A1, “Penicillins, their salts, process for their preparation and pharmaceutical compositions containing them” (Dr. Karl Thomae GmbH, priority 1980, dated 1982).
Values after ≈ are worked out from the molar mass of the structure shown.

Key:
[1] = system: Pseudomonas aeruginosa Walter; assay: experimental intraperitoneal infection in mice, ED50 (survival); format: in vivo, Mäuse; conditions: sc, 168 h, female NMRI mice, i.p. infection, s.c. application, treated three times, 7 days observation, read-out: ED50 Pseud. aerug. Walter
Method: (§1) Eine Reihe der erfindungsgemäßen Verbindungen wurde in vivo bei experimentellen Infektionen an Mäusen untersucht. Man verwendete als pathogene Bakterien E.coli ATCC 11 775 und Pseudomonas aeruginosa Walter. Es wurde eine intraperitoneale Infektion mit 0,2 ml einer 5%igen Mucinsuspension der Bakterien gesetzt. Dies entspricht etwa 2x10^6 Keime E.coli bzw. 8x10^5 Keime Pseudomonas/Maus. Weibliche Mäuse vom Stamm NMRI wurden in Gruppen von jeweils 10 Tieren aufgeteilt, zwei Gruppen blieben unbehandelt, die restlichen Gruppen wurden mit verschiedenen Dosen der jeweiligen erfindungsgemäßen Penicilline zur Bestimmung der ED50 (Dosis, bei der 50 % der Tiere überleben) behandelt. Bei der E.coli-Infektion wurde einmal therapiert. Bei der Pseudomonas-Infektion wurde dreimal behandelt.
(§2) Der Beobachtungszeitraum betrug in beiden Fällen 7 Tage. Die Ergebnisse dieser Teste mit repräsentativen Vertretern der erfindungsgemäßen Penicilline sind in der Tabelle 3 dargestellt.

E.coli ATCC 11 775 = assay: as above; format: in vivo, Mäuse; conditions: Escherichia coli, ATCC 11 / ATCC 1175, sc, 168 h; female NMRI mice, i.p. infection, s.c. application, treated once, 7 days observation
Method: as §1, §2

[2] = system: Pseudomonas aeruginosa Walter; assay: serial dilution test in microtiter system (bacteriostasis, MIC); format: cell-based; conditions: liquid medium, 18 to 20 h at 37°C, read-out: MHK-Werte Pseud. aerug. Walter
Method: (§3) Für die Untersuchungen wurde die Methode des Reihenverdünnungstestes im Mikrotitersystem angewandt. Die Prüfung der Substanzen auf Bakteriostase erfolgte in flüssigem Medium. Es wurde die Bakteriostasewirkung bei folgenden Konzentrationen untersucht.
(§4) Es wurde ein Nährboden folgender Zusammensetzung benutzt: 10 g Pepton, 8 g Fleischextrakt-Oxoid, 3 g Natriumschlorid, 2 g sek. Natriumphosphat werden mit dest. Wasser auf 1000 ml aufgefüllt (pH 7,2-7,4). Lediglich bei der Testung gegen Streptokokken wurde 1% Glucose hinzugefügt. Das Alter der Primärkulturen betrug etwa 20 Stunden. Die Einstellung der Keimsuspension erfolgte am Photometer (nach "Eppendorf") (Reagenzglas-Durchmesser 14 mm, Filter 546 nm) anhand der Trübung einer Bariumsulfat-Vergleichssuspension, die durch eine Bariumsulfat-Aufschwemmung erzeugt wurde, welche durch die Zugabe von 3,0 ml 1%ige Bariumchloridlösung in 97 ml 1%ige Schwefelsäure entstand. Nach der Einstellung wurden Streptococcus Aronson im Verhältnis 1:15 und die übrigen Testkeime im Verhältnis 1:1500 mit einer Kochsalzlösung weiter verdünnt.
(§5) 16 mg der jeweiligen Substanz wurden in 10 ml-Meßkolben eingewogen und mit dem Lösungsmittel bis zur Marke aufgefüllt. Die weitere Verdünnungsreihe wurde mit destilliertem Wasser oder dem jeweiligen Lösungsmittel hergestellt.
(§6) Die Vertiefungen der Mikrotiterplatten wurden mit 0,2 ml Nährmedium, 0,01 ml der entsprechenden Substanzverdünnung und mit einem Tropfen Keimsuspension (0,01 ml) beschickt und 18 bis 20 Stunden bei 37°C bebrütet. Eine Lösungsmittelkontrolle wurde stets mitgeführt.
(§7) Die Ablesung wurde makroskopisch vorgenommen, wobei die jeweilige Grenkonzentration (= niedrigste noch bakteriostatisch wirksame Konzentration) ermittelt wurde.
(§8) Als Testorganismen wurden benützt: - Staphylococcus aureus SG 511, Escherichia coli ATCC 11 775, Pseudomonas aeruginosa Hamburgensis und Walter, Serratia marcescens ATCC 13 880, Klebsiella pneumoniae ATCC 10 031 und BC 6, Proteus mirabilis Hamburgensis, Proteus rettgeri BC 7 und Enterobacter cloacae ATCC 13 047.
(§9) In der folgenden Tabelle 2 sind die ermittelten minimalen Hemmkonzentrationen (MIC) für typische Vertreter der erfindungsgemäßen Verbindungen aufgeführt, wobei sich die Ziffern auf die Penicilline der Tabelle 1 Seite 18 beziehen.

Proteus rettgeri BC 7 = assay: as above; format: cell-based; conditions: Providencia rettgeri, BC7; liquid medium, 18 to 20 h at 37°C; read-out: MHK-Werte Prot. rettg. BC 7
Method: as §3, §4, §5, §6, §7, §8, §9

[3] = system: Proteus mirabilis Hamburgensis; assay: as above; format: cell-based; conditions: liquid medium, 18 to 20 h at 37°C, read-out: MHK-Werte Prot. mir. Hbg.
Method: as §3, §4, §5, §6, §7, §8, §9

[4] = system: Serratia marcescens ATCC 13 880; assay: as above; format: cell-based; conditions: ATCC13, liquid medium, 18 to 20 h at 37°C, read-out: MHK-Werte Serr. marcesc. ATCC 13 880
Method: as §3, §4, §5, §6, §7, §8, §9

[5] = system: Enterobacter cloacae ATCC 13 047; assay: as above; format: cell-based; conditions: ATCC13, liquid medium, 18 to 20 h at 37°C, read-out: MHK-Werte Eb. cloacae 13 047
Method: as §3, §4, §5, §6, §7, §8, §9

[6] = system: Klebsiella pneumoniae BC 6; assay: as above; format: cell-based; conditions: BC6, liquid medium, 18 to 20 h at 37°C, read-out: MHK-Werte Kl. pneum. BC 6
Method: as §3, §4, §5, §6, §7, §8, §9

[7] = system: Escherichia coli ATCC 11 775; assay: as above; format: cell-based; conditions: ATCC11, liquid medium, 18 to 20 h at 37°C, read-out: MHK-Werte E.coli ATCC 11 755
Method: as §3, §4, §5, §6, §7, §8, §9

[8] = system: Klebsiella pneumoniae ATCC 10 031; assay: as above; format: cell-based; conditions: ATCC10, liquid medium, 18 to 20 h at 37°C, read-out: MHK-Werte Kl. pneum. ATCC 10 031
Method: as §3, §4, §5, §6, §7, §8, §9

[9] = system: Staphylococcus aureus SG 511; assay: as above; format: cell-based; conditions: SG511, liquid medium, 18 to 20 h at 37°C, read-out: MHK-Werte Staph. aureus SG 511
Method: as §3, §4, §5, §6, §7, §8, §9

[10] = system: Pseudomonas aeruginosa Hamburgensis; assay: as above; format: cell-based; conditions: liquid medium, 18 to 20 h at 37°C, read-out: MHK-Werte Pseud. aerug. Hbg.
Method: as §3, §4, §5, §6, §7, §8, §9

With `CNC(=O)c1ccc(Nc2ncc(NC(=O)NC(C(=O)NC3C(=O)N4C3SC(C)(C)C4C(=O)O)c3ccc(O)cc3)c(O)n2)cc1` (stereo not drawn) [Verbindung 37] the ED50 [1] was 8 mg/kg, the ED50 (E.coli ATCC 11 775) was 2.8 mg/kg and the MIC [2] was 1 µg/mL (≈ 1.54 µM). It also gave an MIC (Proteus rettgeri BC 7) of 0.5 µg/mL (≈ 0.768 µM), an MIC [3] of 0.06 µg/mL (≈ 0.0922 µM) and an MIC [4] of 0.25 µg/mL (≈ 0.384 µM). For the same compound, the MIC [5] was 1 µg/mL (≈ 1.54 µM), the MIC [6] was 2 µg/mL (≈ 3.07 µM) and the MIC [7] was 0.25 µg/mL (≈ 0.384 µM). It also gave an MIC [8] of 2 µg/mL (≈ 3.07 µM), an MIC [9] of 0.5 µg/mL (≈ 0.768 µM) and an MIC [10] of 1 µg/mL (≈ 1.54 µM).
In the case of `CC1(C)SC2C(NC(=O)C(NC(=O)Nc3cnc(Nc4ccc(S(N)(=O)=O)c(O)c4)nc3O)c3ccc(O)cc3)C(=O)N2C1C(=O)O` (stereo not drawn) [Verbindung 44], the ED50 [1] was 3.6 mg/kg, the ED50 (E.coli ATCC 11 775) was 2.1 mg/kg and the MIC [2] was 0.5 µg/mL (≈ 0.726 µM). It also gave an MIC (Proteus rettgeri BC 7) of 0.25 µg/mL (≈ 0.363 µM), an MIC [3] of 0.03 µg/mL (≈ 0.0436 µM) and an MIC [4] of 0.12 µg/mL (≈ 0.174 µM). For the same compound, the MIC [5] was 0.5 µg/mL (≈ 0.726 µM), the MIC [6] was 1 µg/mL (≈ 1.45 µM) and the MIC [7] was 0.12 µg/mL (≈ 0.174 µM). It also gave an MIC [8] of 1 µg/mL (≈ 1.45 µM), an MIC [9] of 0.25 µg/mL (≈ 0.363 µM) and an MIC [10] of 0.5 µg/mL (≈ 0.726 µM).
`CC1(C)SC2C(NC(=O)C(NC(=O)Nc3cnc(Nc4ccc(S(N)(=O)=O)c(O)c4)nc3O)c3ccccc3)C(=O)N2C1C(=O)O` (stereo not drawn) [Verbindung 45] was tested, and the ED50 [1] was 5.2 mg/kg, the ED50 (E.coli ATCC 11 775) was 3.2 mg/kg and the MIC [2] was 0.5 µg/mL (≈ 0.743 µM). For the same compound, the MIC (Proteus rettgeri BC 7) was 0.25 µg/mL (≈ 0.372 µM), the MIC [3] was 0.06 µg/mL (≈ 0.0892 µM) and the MIC [4] was 0.12 µg/mL (≈ 0.178 µM). It also gave an MIC [5] of 1 µg/mL (≈ 1.49 µM), an MIC [6] of 1 µg/mL (≈ 1.49 µM) and an MIC [7] of 0.12 µg/mL (≈ 0.178 µM). The MIC [8] was 0.5 µg/mL (≈ 0.743 µM), the MIC [9] was 0.12 µg/mL (≈ 0.178 µM) and the MIC [10] was 1 µg/mL (≈ 1.49 µM).
Work on `C[S+]([O-])c1ccc(CNc2ncc(NC(=O)NC(C(=O)N[C@@H]3C(=O)N4[C@@H]3SC(C)(C)[C@@H]4C(=O)O)c3ccc(O)cc3)c(O)n2)cc1` (stereo partly drawn) [Verbindung 62] yielded an ED50 [1] of 18.3 mg/kg, an ED50 (E.coli ATCC 11 775) of 5.9 mg/kg and an MIC [2] of 2 µg/mL (≈ 2.99 µM). It also gave an MIC (Proteus rettgeri BC 7) of 1 µg/mL (≈ 1.49 µM), an MIC [3] of 0.12 µg/mL (≈ 0.179 µM) and an MIC [4] of 1 µg/mL (≈ 1.49 µM). It also gave an MIC [5] of 4 µg/mL (≈ 5.97 µM), an MIC [6] of 8 µg/mL (≈ 11.9 µM) and an MIC [7] of 0.5 µg/mL (≈ 0.747 µM). The MIC [8] was 4 µg/mL (≈ 5.97 µM), the MIC [9] was 0.5 µg/mL (≈ 0.747 µM) and the MIC [10] was 2 µg/mL (≈ 2.99 µM).
For `CC1(C)S[C@@H]2[C@H](NC(=O)C(NC(=O)Nc3cnc(NCc4ccc(S(N)(=O)=O)cc4)nc3O)c3ccc(O)cc3)C(=O)N2[C@H]1C(=O)O` (stereo partly drawn) [Verbindung 64], the ED50 [1] was 12.4 mg/kg, the ED50 (E.coli ATCC 11 775) was 2.4 mg/kg and the MIC [2] was 1 µg/mL (≈ 1.46 µM). It also gave an MIC (Proteus rettgeri BC 7) of 0.5 µg/mL (≈ 0.728 µM), an MIC [3] of 0.06 µg/mL (≈ 0.0874 µM) and an MIC [4] of 0.25 µg/mL (≈ 0.364 µM). It also gave an MIC [5] of 2 µg/mL (≈ 2.91 µM), an MIC [6] of 4 µg/mL (≈ 5.82 µM) and an MIC [7] of 0.12 µg/mL (≈ 0.175 µM). The MIC [8] was 4 µg/mL (≈ 5.82 µM), the MIC [9] was 0.25 µg/mL (≈ 0.364 µM) and the MIC [10] was 2 µg/mL (≈ 2.91 µM).
